Common to all, as to test: NCI-60 cell line screen, 48 h
Experiment [1] has as its system A498 renal.
Experiment [2] has as its system BT-549 breast.
Experiment [3] deals with HCT-15 colon.
In experiment [4] the test system is K-562 leukemia.
Experiment [5] concerns OVCAR-8 ovarian.
For experiment [6], the system named is SK-MEL-28 melanoma.
Experiment [7] has as its system UACC-257 melanoma.
The subject of experiment [8] is UACC-62 melanoma.

The values below come from PubChem BioAssay (NCI).

“And” between values parts separate entries of the source, which are not always exact repeats. Equal values may be shown once.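 Each compound was tested at five concentrations against cells in 96-well plates for 48 hours. Abbreviation: GI50, concentration required for 50% inhibition of growth. TGI: total growth inhibition.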

With `CC1C(C)N(C(=O)CCl)c2ccccc2N1C(=O)CCl` (configuration not stated), the GI50 in experiment [1] was 1.59 µM; in experiment [2], 0.849 µM; in experiment [3], 0.304 µM; in experiment [4] it was 0.282 µM; in experiment [5] it was 0.55 µM; in experiment [6] it was 0.838 µM. In addition, the GI50 in experiment [7] was 0.723 µM; in experiment [8], 0.624 µM. In addition, the TGI worked out at 3.14 µM in experiment [1]; 2.41 µM in experiment [2]; 1.28 µM in experiment [3]; 2.37 µM in experiment [4]; 12.5 µM in experiment [5]; 2.9 µM in experiment [6]. Moreover, the TGI in experiment [7] was 3.16 µM; in experiment [8] it was 2.1 µM.
For the compound `COc1ccc2c(c1OC)CO[C@@H]2[C@H]1c2c(cc3c(c2OC)OCO3)CCN1S(=O)(=O)c1cn(C)cn1`, the GI50 was 0.588 µM in experiment [1]; 2.87 µM in experiment [2]; 0.722 µM in experiment [3]; 0.413 µM in experiment [4]; 3.24 µM in experiment [5]; 5.4 µM in experiment [6]. For the same compound, the results for the GI50 in experiment [7] and in experiment [8] were 9.43 µM and 0.803 µM, respectively. Also, the TGI was 9.75 µM in experiment [1]; 84.8 µM in experiment [2]; > 100 µM in experiment [3]; > 100 µM in experiment [4]; > 100 µM in experiment [5]; > 100 µM in experiment [6]. For the same compound, the TGI in experiment [7] and in experiment [8] was > 100 µM throughout.
For `O=C(/C=C\c1ccc([N+](=O)[O-])cc1)c1ccccc(=O)c1O`, the TGI in experiment [1] is 9.59 µM; in experiment [2], 6.17 µM; in experiment [3] it was 4.2 µM; in experiment [4], > 30.9 µM; in experiment [5] it was 11.3 µM; in experiment [6], 3.75 µM. Moreover, the TGI was 7.85 µM in experiment [7] and 3.13 µM in experiment [8].
As to `COc1cc(/C=N/Nc2ncnc3c2cnn3-c2ccccc2)ccc1O`, the GI50 in experiment [1] is > 25 µM; in experiment [2], > 25 µM; in experiment [3], 4.06 µM; in experiment [4], 2.85 µM; in experiment [5], > 14.7 µM; in experiment [6], 18.5 µM. In addition, the values for the GI50 in experiment [7] and in experiment [8] were > 25 µM and 15.6 µM, respectively. Moreover, the TGI in experiment [1], in experiment [2], in experiment [3], in experiment [4], in experiment [5] and in experiment [6] was > 25 µM in each case. Also, the TGI in experiment [7] and in experiment [8] was > 25 µM each time.
With `Nc1nc([Se])c2ncn(C3OC(CO)C(O)C3O)c2n1` (configuration not stated), the GI50 was 17 µM in experiment [1]; 30.6 µM in experiment [2]; 7.84 µM in experiment [3]; 5.59 µM in experiment [4]; 3.86 µM in experiment [5]; > 100 µM in experiment [6]. In addition, the GI50 in experiment [7] was 37.5 µM; in experiment [8], 4.16 µM. The TGI in experiment [1], in experiment [2], in experiment [3], in experiment [4], in experiment [5] and in experiment [6] was > 100 µM throughout. For the same compound, the TGI in experiment [7] and in experiment [8] was > 100 µM throughout.
Consider `CCOC(=O)c1cc2c(cc1Cl)SC(=Nc1ccccc1)N(S(=O)(=O)c1ccc(Cl)cc1)S2(=O)=O`, for which the GI50 in experiment [1] is 11.4 µM; in experiment [2] it was 14.5 µM; in experiment [3], 6.52 µM; in experiment [4], 15 µM; in experiment [5], 22.1 µM; in experiment [6] it was 21.6 µM. In addition, the results for the GI50 in experiment [7] and in experiment [8] were 17.6 µM and 10.2 µM, respectively. The TGI in experiment [1] is 24.6 µM; in experiment [2] it was 30.4 µM; in experiment [3], 21.9 µM; in experiment [4] it was 38.7 µM; in experiment [5], 59.6 µM; in experiment [6], 74.6 µM. Further, the TGI stood at 40.3 µM in experiment [7] and 23.7 µM in experiment [8].
For `COc1ccc2c(c1)[nH]c(=O)c1c3cccc(F)c3cn21`, the GI50 in experiment [1] was 0.0625 µM; in experiment [2], 21.2 µM; in experiment [3], 0.0458 µM; in experiment [4] it was 0.024 µM; in experiment [5], 0.129 µM; in experiment [6] it was 0.351 µM. Besides, the figures for the GI50 in experiment [7] and in experiment [8] were > 92.9 µM and 0.0379 µM, respectively. In addition, the TGI in experiment [1] was > 100 µM; in experiment [2] it was > 100 µM; in experiment [3], > 100 µM; in experiment [4] it was 12.3 µM; in experiment [5], > 73.3 µM; in experiment [6], > 69.8 µM. Besides, the TGI in experiment [7] and in experiment [8] was > 100 µM each time.
Turning to `CCc1ccc(CCC(=O)Nc2ncc(Cc3ccc(Cl)cc3)s2)o1`, the GI50 is 0.208 µM in experiment [1]; 2.12 µM in experiment [2]; 0.356 µM in experiment [3]; 0.365 µM in experiment [4]; 0.572 µM in experiment [5]; 4.27 µM in experiment [6]. Moreover, the GI50 in experiment [8] was 0.491 µM. Moreover, the TGI in experiment [1] was 0.844 µM; in experiment [2] it was > 100 µM; in experiment [3], > 100 µM; in experiment [4], > 100 µM; in experiment [5] it was > 100 µM; in experiment [6], > 100 µM. Also, the TGI in experiment [7] and in experiment [8] was > 100 µM each time.
On to `O=S(=O)(NNc1ccccc1)c1ccccc1`, for which the TGI in experiment [1] is > 100 µM; in experiment [2] it was 44.2 µM; in experiment [3], > 100 µM; in experiment [4], 39.5 µM; in experiment [5], > 100 µM; in experiment [6] it was > 100 µM. Besides, the results for the TGI in experiment [7] and in experiment [8] were > 100 µM and 30 µM, respectively.
Consider `CN(C)c1ccc2oc(=O)c3ccccc3c2c1`, for which the TGI in experiment [1], in experiment [2], in experiment [3], in experiment [4], in experiment [5] and in experiment [6] was > 100 µM in each case. Further, the TGI in experiment [7] and in experiment [8] was > 100 µM throughout.
As for `CC(C)(C)C1CCC2c3c([nH]c4ccccc34)C3C(=O)N(c4ccc(Cl)cc4)C(=O)C3C2C1` (configuration not stated), the TGI in experiment [1] is > 10 µM; in experiment [2], > 100 µM; in experiment [3], > 100 µM; in experiment [4], 46.1 µM and > 10 µM; in experiment [5], > 100 µM; in experiment [6] it was > 100 µM. In addition, the TGI in experiment [7] and in experiment [8] was > 100 µM in each case. The GI50 in experiment [3] was 52.3 µM and > 10 µM; in experiment [4], 21.1 µM and > 10 µM; in experiment [5], > 100 µM; in experiment [6] it was > 100 µM; in experiment [7] it was > 100 µM; in experiment [8] it was > 100 µM.
Take `COc1ccc(C/C(=C(\C)c2ccc(OCCN3CCCC3)cc2)c2ccc(OCCN3CCCC3)cc2)cc1`: the GI50 is 2.5 µM in experiment [1]; 1.67 µM in experiment [2]; 1.51 µM in experiment [3]; 1.53 µM in experiment [4]; 2.05 µM in experiment [5]; 1.82 µM in experiment [6]. The GI50 in experiment [7] is 1.76 µM; in experiment [8], 1.78 µM. Further, the TGI was 8.04 µM in experiment [1]; 3.25 µM in experiment [2]; 3.05 µM in experiment [3]; 3.6 µM in experiment [4]; 4.38 µM in experiment [5]; 3.3 µM in experiment [6]. Also, the values for the TGI in experiment [7] and in experiment [8] were 3.31 µM and 3.38 µM, respectively.
Turning to `CCC(C)[C@H](NC(=O)Nc1cc(C(F)(F)F)cc(C(F)(F)F)c1)C(=O)N[C@@H](Cc1cn(C)cn1)C(=O)OC` (some centres not stated), the GI50 in experiment [1] was 1.6 µM; in experiment [2], 0.698 µM; in experiment [3], 1.4 µM; in experiment [4], 1.06 µM; in experiment [5], 0.634 µM; in experiment [6] it was 0.572 µM. For the same compound, the GI50 in experiment [7] was 1.3 µM; in experiment [8], 1.11 µM. For the same compound, the TGI was 3.4 µM in experiment [1]; 1.68 µM in experiment [2]; 2.21 µM in experiment [3]; 2.44 µM in experiment [4]; 1.33 µM in experiment [5]; 1.1 µM in experiment [6]. Further, the TGI in experiment [7] was 1.85 µM; in experiment [8], 1.86 µM.
For `CCN(CC)CCCNc1cc(OC)cc2nc3cc(Cl)ccc3nc12`, the GI50 in experiment [1] was 1.27 µM; in experiment [2], 4.95 µM; in experiment [3], 4.12 µM; in experiment [4], 1.54 µM; in experiment [5] it was 0.838 µM; in experiment [6], 1.79 µM. For the same compound, the values for the GI50 in experiment [7] and in experiment [8] were 1.83 µM and 2.19 µM, respectively. In addition, the TGI was found to be 2.7 µM in experiment [1]; 15.3 µM in experiment [2]; 35.4 µM in experiment [3]; 11.6 µM in experiment [4]; 10.2 µM in experiment [5]; 3.21 µM in experiment [6]. The values for the TGI in experiment [7] and in experiment [8] were 3.31 µM and 4.25 µM, respectively.
For `CC1CC[P+](c2ccccc2)(c2ccccc2)c2c1ccc1ccccc21` (configuration not stated), the GI50 was 35.1 µM in experiment [1] and 13 µM in experiment [6]. The TGI in experiment [1] is 88.2 µM; in experiment [2], 6.68 µM; in experiment [3], > 100 µM; in experiment [4] it was 17.8 µM; in experiment [5], 21.1 µM; in experiment [6], > 73.4 µM. Further, the TGI in experiment [7] is 13.9 µM; in experiment [8], 20.1 µM.
